Tested on: senescent preadipocytes (C12FDG^Hi) in eWAT of HFD mice
Assay: C12FDG flow cytometry assay (SA-βgal activity) on eWAT SVF of HFD mice
Assay type: in vivo, mouse
Conditions: HFD-fed mice treated with ABT-737 vs vehicle-treated controls
Experimental: MATERIALS AND METHODS. Mouse husbandry. All procedures involving mice were performed according to the IACUC standards following ethics approval by the animal committee at the University of California, San Francisco. Male C57BL6/J on chow or HFD fed mice. HFD mice were fed a high-fat diet (60% kcal from fat) from 6 weeks until 22 weeks of age. All experiments on HFD mice were performed at 22-24 weeks total age (16-18 weeks on HFD). Age-matched male C57BL6/J mice on standard rodent chow diet were used as controls. For the lung injury model, 10-week-old male C57BL/6J mice were used. The animals were divided into three groups: the control group, the injured group, and the α-GalCer treated group. The animals in the control group received vehicle only (i.p.) on day 10. The injured group animals received bleomycin (3 U/kg) via the intratracheal route at the start of the experiment (day 0). The animals in the α-GalCer treated groups received bleomycin (3 U/kg) on day 0, and i.p. injection of α-GalCer (2 μg/mouse) on day 10. The animals in all the groups were sacrificed on day 14, and lungs were harvested for isolation of primary pulmonary Alveolar Type II cells (ATII) on the same day. For the hydroxyproline assay, mice were euthanized 21 days after injury.
Epidydmal white adipose tissue stromal vascular fraction (eWAT SVF) isolation. eWAT SVF was isolated using standard protocols. Briefly, mice were euthanized, and epididymal fat pads were harvested, washed twice in D-PBS and minced. eWAT pads were digested with 1 U/ml Collagenase-D (Roche) in 1×HBSS containing 1% BSA (Sigma-Aldrich) for 1 hr at 37° C. Digested fat tissue was then strained twice through 100 μm strainers and neutralized with 30 ml of complete culture media (DMEM-F12 1:1, 10% FBS, 1×Penicillin-streptomycin). Samples were spun at 500 g for 5 minutes, shaken to resuspend the SVF pellet and then spun again. The resulting SVF pellet containing blood cells was lysed with ACKS buffer, washed in D-PBS and spun down. Total live SVF cells were counted using trypan blue and then used for various assays.
C12FDG flow cytometry assay. eWAT SVF cells isolated and counted as described above were adjusted to 3×10^6 cells/ml in complete culture media and incubated with 33 μM C12FDG for 1 hr in a 37° C. water bath. Cells were then spun down at 500 g for 5 minutes, washed with Cell Staining buffer, and stained with anti-CD45-APC (clone 30F-11) and anti-CD31-PE-Cy7 (clone 390) each at a 1:200 dilution on ice for 30 minutes. Cells were then washed in Cell Staining buffer and resuspended in Cell Staining buffer containing 1×7-AAD. Samples were analyzed on an Attune acoustic focusing cytometer. Gates were set as follows: cells (FSC-A/SSC-A), forward scatter singlets (FSC-H/FSC-A), side-scatter singlets (SSC-H/SSC-A), live cells (7-AAD^−), non-immune cells (CD45^−), non-endothelial cells (CD31^−) and analyzed for C12FDG fluorescence. […] Data were analyzed with FlowJo (v. 10). For Lung, 1×10^6 cells from each sample were used to perform the assay. The cells were incubated with 66 μm of C12FDG in sterile DMEM containing DNase for 1 hour at 37° C. Following the incubation, the cells were washed with cell staining buffer, blocked with anti CD16/32 mouse monoclonal antibody (1:1000, prepared by the UCSF monoclonal antibody core), and stained with APC anti-mouse CD45 (1:400), and 7-AAD (1:1000). The gating strategy followed selected 7-AAD^−, CD45^−, and C12FDG^+ cells. […]

CN(C)CC[C@H](CSc1ccccc1)Nc1ccc(S(=O)(=O)NC(=O)c2ccc(N3CCN(Cc4ccccc4-c4ccc(Cl)cc4)CC3)cc2)cc1[N+](=O)[O-] [ABT-737]
number of C12FDG^Hi cells in preadipocyte-enriched SVF population (FIG. 2C): reduced the number of C12FDG^Hi cells | relative number of C12FDG^Lo cells in preadipocyte-enriched SVF population (FIG. 2D): increased the relative number of C12FDG^Lo cells

Reference: patent publication US20230172984A1, “CLEARANCE OF SENESCENT CELLS BY ACTIVATION OF iNKT CELLS” (THE REGENTS OF THE UNIVERSITY OF CALIFORNIA, priority 2020, published 2023)
